This note sets out measurements from US20090312384A1, “Benzimidazole As Cooling Compounds” (priority 2006, published 2009).

Each structure is given as a SMILES string.

In data set [1] the test system is panelists. In words: Panel tasting of aqueous solutions for cooling intensity versus menthol at 2 ppm. The format is in vivo. Particulars: aqueous solution; concentration with cooling intensity similar or slightly higher than a solution of menthol at 2 ppm. The source says:
Experiments on cooling properties/intensities.
A group of panelists was asked to taste various aqueous solutions of compounds of formula (I) and to indicate which solutions had cooling intensities similar or slightly higher than that of a solution of menthol at 2 ppm.

Data set [2] has as its system panelist. As to the kind of experiment: Application in toothpaste: panelist's teeth brushed with toothgel containing the cooling compound. The format is in vivo. The conditions noted are these: 0.20 g of 5% (w/w) ethanol solution in opaque toothgel with peppermint oil and saccharin, after brushing and rinsing. As for the experimental part:
[table] The chemicals were mixed in the toothgel, a piece of toothgel was put on a toothbrush and a panelist's teeth were brushed. The mouth was rinsed with water and the water was spit out. […] The cooling perception lasted for 90 minutes.

By melting point is commonly meant the temperature of the solid-liquid transition.

`COc1ccc(C(=O)OC(=Cc2nc3ccccc3n2C)c2ccc(OC)cc2)cc1` [1-(4-methoxyphenyl)-2-(1-methyl-1H-benzo[d]imidazol-2-yl)vinyl 4-methoxybenzoate] showed a Concentration in data set [1] of 0.5 ppm.
Same read-out and setting: the result for `CC1CCC(C(C)C)C(O)C1` (stereo not drawn) [Example 1-Menthol, 1-Menthol, reference compound] reads 2 ppm solution.
`COc1ccc(C(=O)OC(=Cc2nc3cc(C)ccc3n2C(C)C)c2ccc(Cl)cc2)cc1` [Example 2, 1-(4-chlorophenyl)-2-(1-isopropyl-5-methyl-1H-benzo[d]imidazol-2-yl)vinyl 4-methoxybenzoate] yielded a melting point of 155 to 160 °C.
The compound `COc1ccc(C(=O)OC(=Cc2nc3cc(C)ccc3n2C(C)C)c2ccc(OC)cc2)cc1` [Example 3, 2-(1-isopropyl-5-methyl-1H-benzo[d]imidazol-2-yl)-1-(4-methoxyphenyl)vinyl 4-methoxybenzoate] returned a melting point of 147 to 152 °C. In data set [1], this compound yielded a Concentration of 0.5 ppm.
The compound `Cc1ccc2nc(C=C(OC(=O)c3ccc(Cl)cc3)c3ccc(Cl)cc3)n(C(C)C)c2c1` [Example 4, 1-(4-chlorophenyl)-2-(1-isopropyl-6-methyl-1H-benzo[d]imidazol-2-yl)vinyl 4-chlorobenzoate] had a melting point of 158 to 165 °C.
In the case of `COc1ccc(C(=O)OC(=Cc2nc3ccc(C)cc3n2C(C)C)c2ccc(OC)cc2)cc1` [Example 5, 2-(1-isopropyl-6-methyl-1H-benzo[d]imidazol-2-yl)-1-(4-methoxyphenyl)vinyl 4-methoxybenzoate], the melting point lay within 125 to 130 °C. Moreover, the Concentration in data set [1] came to 0.5 ppm. Besides, the “Duration of cooling perception” value in data set [2] stood at 90 min. Also, the “Cooling sensation felt by the panelist” value in data set [2] (all areas of the mouth) is on record as “intense cooling sensation”.
In data set [1], `Cc1ccc(C(=O)OC(=Cc2nc3ccccc3n2C)c2ccc(C)cc2)cc1` [Example 8, 2-(1-methyl-1H-benzo[d]imidazol-2-yl)-1-p-tolylvinyl 4-methylbenzoate] displayed a Concentration of 2.0 ppm.
In the case of `CCNC(=O)C1CC(C)CCC1C(C)C` (stereo not drawn) [N-ethyl p-menthanecarboxamide (WS-3), N-ethyl p-menthanecarboxamide, reference compound], the Concentration in data set [1] is recorded as 1.5 ppm.
